Test results published in US20240172748A1, “A SYNERGISTIC PLANT GROWTH STIMULANT COMPOSITION COMPRISING MELATONIN AND NITROGENOUS COMPOUNDS FOR IMPROVING PLANT GROWTH AND DECREASING BIOTIC-ABIOTIC STRESSES ON PLANTS” (FERTIS INDIA PVT. LTD., priority 2021, published 2024).

Columns and labels:
Type in all cases: in vivo
Paddy [1] = experiment: Percentage of protein in grain, field trial on Paddy; settings: area 10-meter square, 1 gm/liter foliar application
Source text: Example 11: Percentage of Protein in Grain
(§1) Field trail results on Paddy—Area 10-meter square 1 gm/liter Foliar Application

Paddy [2] = experiment: Total protein content in percentage in grain, field trial on Paddy; settings: area 10-meter square, lgm/liter foliar application
Source text: Example 12: Methionin with Plant Growth Hormone—Total Protein Content in Percentage in Grain
Field trail results on Paddy—Area 10-meter square lgm/liter Foliar Application

Paddy [3] = experiment: Micronutrient analysis in grain, field trial on Paddy; settings: area 10-meter square, 1 gm/liter foliar application
Source text: Example 9: Micronutrient Analysis in Grain
as §1

| SMILES | % of Protein (Paddy [1]) [%] | Total Protein content in % (Paddy [2]) [%] | other results |
| --- | --- | --- | --- |
| CNC(=O)NC [Dimethyl urea] | 0.0081 |  |  |
| O=CNC(=O)NC=O [NN DFU, N,N′-Diformyl Urea] | 0.0117 |  |  |
| C=C1C[C@]23C[C@@]1(O)CC[C@H]2[C@@]12C=C[C@H](O)[C@@](C)(C(=O)O1)[C@H]2[C@@H]3C(=O)O [Gibberellic acid] |  | 0.084 |  |
| COc1ccc2[nH]cc(CCNC(C)=O)c2c1 [Melatonin] |  | 0.076 | B (Boron) (Paddy [3]): 40.30 ppm; Ca (Calcium) (Paddy [3]): 375.00 ppm; Fe (Iron) (Paddy [3]): 300.00 ppm; Mg (Magnesium) (Paddy [3]): 609.00 ppm; Mn (Manganese) (Paddy [3]): 45.00 ppm; Zn (Zinc) (Paddy [3]): 36.50 ppm |
| NC(N)=O [Urea] | 0.0063 |  |  |
| O=C(Nc1ccccc1)Nc1ccccc1 [Diphenyl urea] | 0.0089 |  |  |
